The nature of series [1]: Local (cellular) toxicity in vitro, fluorescein assay. The conditions noted are these: FS-TET disks at solubility limit (TET-HCl 20 mg/mL, TET free base 1 mg/mL).
Series [2] relates to non-multi-drug resistant (NMDR) peritonitis. Kind of series: Prophylactic protection against lethal NMDR peritonitis in mice. As to conditions: prophylactic treatment, 500 mg/kg. Type of series: in vivo.
In series [3] the test system is MDR isotype of S. aureus (ATCC 27659). Kind of series: Agar diffusion zone of growth inhibition, antibiotics delivered from fibrin sealant. It is filed as cell-based, Staphylococcus aureus. As to conditions: in vitro, 6 mm wells filled with fibrin sealant with antibiotic, 18 h at 37° C., FIG. 2. As to the method:
The method used was that of Barry,Am. Journal of Clinical Pathology, 53:149 (1970), incorporated herein by reference, with modifications. Briefly, antibiotic bioactivity was assessed by agar diffusion where the agar hydrogel was seeded with bacteria prior to solidification. Several 6 mm wells were cut into the agar, the plugs were removed by aspiration and the wells were filled with the fibrin sealant hydrogel containing various concentrations of low-solubility antibiotics. Cultures were incubated for 18 h at 37° C. Zones of growth inhibition—the area about the well where diffused antibiotic prevents growth of seeded bacteria—were recorded to the nearest mm and graphed in FIG. 2. The zone of inhibition required to document bacterial susceptibility to a particular concentration of antibiotic is indicated by a black horizontal bar. […] Moreover, increasing the local concentration of low solubility antibiotics released from fibrin sealant effectively overcomes S. aureus resistance in vitro.

This is an account of results in US6395288B1, “Subversion of bacterial resistance by low solubility antibiotics” (Kent State University, priority 1998, dated 2002).

As for `CN(C)[C@@H]1C(=O)C(C(N)=O)=C(O)[C@@]2(O)C(=O)C3=C(O)c4c(O)cccc4[C@@](C)(O)[C@H]3C[C@@H]12.Cl` [TET-HCl], in series [1], the “local (cellular) toxicity, fluorescein assay” value is “acutely toxic”.

As for `CN(C)[C@@H]1C(O)=C(C(N)=O)C(=O)[C@@]2(O)C(O)=C3C(=O)c4c(O)cccc4[C@@](C)(O)[C@H]3C[C@@H]12` [tetracycline], the “protection against a lethal dose of NMDR peritonitis” value in series [2] is recorded as 100%.

For the compound `[H]/N=C(/N)N[C@H]1[C@H](O)[C@@H](O)[C@H](O[C@@H]2O[C@@H](C)[C@](O)(C=O)[C@H]2O[C@@H]2O[C@@H](CO)[C@H](O)[C@@H](O)[C@@H]2NC)[C@@H](N/C(N)=N\[H])[C@@H]1O` [streptomycin], the “growth inhibition (zone of growth inhibition)” value in series [3] is reported as “appeared effective in vitro”.
